Key:
[1] = system: LNCaP cells; test: Cellular uptake and distribution (surface-bound, internalized) in LNCaP cells; type: cell-based; conditions: 1 h, 37°C
Procedure: (§1) The lipophilicity of [^61Cu]Cu-DOTAGA-PSMA-I&T and [^61Cu]Cu-NODAGA-PSMA-I&T was assessed by determining the distribution coefficient in a 1:1 mixture of 1-octanol–to–phosphate-buffered saline at pH 7.4, in comparison with all reference radiotracers. Inhibitory concentration of 50% (IC50) was assessed by competition binding on lymph node carcinoma of the prostate (LNCaP) using ((S)-1-carboxy-5-(4-(-^125I-iodo-benzamido)pentyl)carbamoyl)-L-glutamic acid as the reference radioligand. Cellular uptake and distribution were assessed in LNCaP cells at 5, 15, 30, 60, and 120 min after exposure to the radioligand at 37°C, either alone or in the presence of 10 µM 2-(phosphonomethyl)pentanedioic acid to distinguish between specific and nonspecific uptake.
FIGURE 1. In vitro assessment in LNCaP cells after 1 h at 37°C. (A) Competition binding activity curves of ^natCu-DOTAGA-PSMA-I&T, ^natCu-NODAGA-PSMA-I&T, and ^natGa-PSMA-11 on LNCaP cells after 1 h of incubation on ice, using ((S)-1-carboxy-5-(4-(-^125I-iodo-benzamido)pentyl)carbamoyl)-L-glutamic acid ([^125I-BA]KuE) at concentration of 0.2 nM as reference radioligand. (B) Cellular uptake (surface-bound + internalized). Cell surface–bound and internalized fractions are indicated. Results represent mean ± SD of specific (total − nonspecific) uptake from minimum of 2 separate experiments, each in triplicate.

[2] = In vivo metabolic stability (radio-HPLC of urine, liver and kidney homogenates); parameters: species or system BALB/c mice; conditions: 1 h after injection
Procedure: The stability of [^61Cu]Cu-DOTAGA-PSMA-I&T and [^61Cu]Cu-NODAGA-PSMA-I&T was assessed by radio–reversed-phase high-performance liquid chromatography in urine and in liver and kidney homogenates from healthy BALB/c mice after injection of 100 µL/400 pmol/8–9 MBq of each radiotracer. Details are provided in the supplemental materials.

[3] = Stability of radiotracer at room temperature (radiochemical purity over time); type: physicochemical; conditions: 24 MBq/nmol, 4 h
Procedure: [^61Cu]Cu-DOTAGA-PSMA-I&T and [^61Cu]Cu-NODAGA-PSMA-I&T were synthesized with radiolabeling yield of more than 98% and radiochemical purity of more than 97% (radio–high-performance liquid chromatography analysis) at an apparent molar activity of 24 MBq/nmol. Thus, no purification was required after labeling. Although [^61Cu]Cu-DOTAGA-PSMA-I&T needed elevated temperature (95°C) and 15 min of reaction time, [^61Cu]Cu-NODAGA-PSMA-I&T was synthesized at room temperature within 5 min. After 4 h at room temperature, the radiochemical purity of [^61Cu]Cu-DOTAGA-PSMA-I&T dropped to approximately 90%, whereas it remained stable (∼97%) for [^61Cu]Cu-NODAGA-PSMA-I&T. All analytic data and quality control results are provided in Supplemental Figures 1 and 2 and in Supplemental Tables 1 and 2.
With inexpensive ^natNi as the starting material, highly pure ^61Cu could be produced with radionuclidic purity exceeding 99.99% at 12 h after synthesis (details on the production will be published elsewhere). The preparation of [^61Cu]Cu-NODAGA-PSMA-I&T was performed in widely used buffers at room temperature within 5 min. […] High labeling yields and suitable molar activities for clinical use eliminate the need for any purification step after labeling. […]

[4] = Lipophilicity: distribution coefficient in 1:1 1-octanol/phosphate-buffered saline at pH 7.4; type: physicochemical
Procedure: as §1

[5] = system: LNCaP xenografts; test: Biodistribution in LNCaP xenografts; type: in vivo, mice
Procedure: All animal experiments were conducted in accordance with Swiss animal welfare laws and regulations under license number 30515 granted by the Veterinary Office, Department of Health, Canton Basel-Stadt, Switzerland. Male athymic nude-Foxn1^nu/Foxn1^+ mice (Envigo), 4–6 wk old, were inoculated subcutaneously on the shoulder with 10^7 LNCaP cells, freshly suspended in a 1:1 ratio of sterile minimum essential medium with basal medium Eagle and Matrigel. The tumors were allowed to grow to a volume of approximately 200 mm^3.
The biodistribution of [^61Cu]Cu-DOTAGA-PSMA-I&T and [^61Cu]Cu-NODAGA-PSMA-I&T (100 µL/200 pmol/2–3 MBq) was compared with that of [^68Ga]Ga-DOTAGA-PSMA-I&T, [^68Ga]Ga-NODAGA-PSMA-I&T, and [^68Ga]Ga-PSMA-11 (100 µL/200 pmol/3–5 MBq), as well as [^18F]PSMA-1007 (100 µL/70 pmol/15 MBq). This comparison was conducted at 1 h after injection for all radiotracers and at 4 h after injection for the ^61Cu-labeled tracers and [^18F]PSMA-1007. The specificity of the ^61Cu-labeled tracers was assessed at 1 h after injection by blocking studies with 2-(phosphonomethyl)pentanedioic acid (100 µL/1.3 µmol) being injected 3–5 min before the injection of the radiotracer.

[6] = 1 h after injection, blocking with 2-(phosphonomethyl)pentanedioic acid 1.3 µmol

O=C([O-])CN1CCN(CC(=O)O)CCN(CC(=O)[O-])CCN(C(CCC(=O)N[C@H](Cc2ccc(O)c(I)c2)C(=O)N[C@H](Cc2ccccc2)C(=O)N[C@H](CCCCNC(=O)CCCCCCC(=O)NCCCC[C@H](NC(=O)N[C@@H](CCC(=O)O)C(=O)O)C(=O)O)C(=O)O)C(=O)O)CC1.[61Cu+2] (stereo partly drawn) [[^61Cu]Cu-DOTAGA-PSMA-I&T, DOTAGA-(l-y)fk(sub-KuE)]
Cellular uptake (surface-bound + internalized) ([1]; specific uptake): 26.6% ± 1.3%
Internalized fraction ([1]; % of applied activity): 13.3 ± 0.5%
Surface-bound fraction ([1]; % of applied activity): 13.4 ± 0.8%
Release of ^61Cu in the liver [2]: approximately 70%
Radiochemical purity after 4 h at room temperature [3]: approximately 90%
logDpH7.4 [4]: −2.69 ± 0.44
Biodistribution, Adrenals ([5]; 1 h after injection): 9.35 ± 1.50 %IA/g
Biodistribution, Blood ([5]; 1 h after injection): 2.06 ± 0.24 %IA/g
Biodistribution, Femur ([5]; 1 h after injection): 2.31 ± 0.36 %IA/g
Biodistribution, Heart ([5]; 1 h after injection): 3.73 ± 0.32 %IA/g
Biodistribution, Intestine ([5]; 1 h after injection): 8.95 ± 0.62 %IA/g
Biodistribution, Kidneys ([5]; 1 h after injection): 57.1 ± 6.3 %IA/g
Biodistribution, Liver ([5]; 1 h after injection): 19.3 ± 3.3 %IA/g
Biodistribution, Lung ([5]; 1 h after injection): 6.35 ± 0.35 %IA/g
Biodistribution, Muscles ([5]; 1 h after injection): 1.00 ± 0.05 %IA/g
Biodistribution, Pancreas ([5]; 1 h after injection): 2.82 ± 0.67 %IA/g
Biodistribution, Salivary glands ([5]; 1 h after injection): 5.60 ± 1.39 %IA/g
Biodistribution, Spleen ([5]; 1 h after injection): 4.64 ± 1.35 %IA/g
Biodistribution, Stomach ([5]; 1 h after injection): 7.77 ± 0.62 %IA/g
Biodistribution, Tumor (tumor uptake) ([5]; 1 h after injection): 6.06 ± 0.25 %IA/g
Tumor-to-Adrenals ratio ([5]; 1 h after injection): 0.66 ± 0.13
Tumor-to-Blood ratio ([5]; 1 h after injection): 2.97 ± 0.23
Tumor-to-Intestine ratio ([5]; 1 h after injection): 0.68 ± 0.07
Tumor-to-Kidneys ratio ([5]; 1 h after injection): 0.11 ± 0.01
Tumor-to-Liver ratio ([5]; 1 h after injection): 0.32 ± 0.05
Tumor-to-Muscles ratio ([5]; 1 h after injection): 6.08 ± 0.22
Tumor-to-Salivary glands ratio ([5]; 1 h after injection): 1.14 ± 0.34
Tumor-to-Spleen ratio ([5]; 1 h after injection): 1.37 ± 0.29
Biodistribution, Adrenals [5, 6]: 3.25 ± 0.92 %IA/g
Biodistribution, Blood [5, 6]: 1.36 ± 0.15 %IA/g
Biodistribution, Femur [5, 6]: 1.50 ± 0.21 %IA/g
Biodistribution, Heart [5, 6]: 2.34 ± 0.11 %IA/g
Biodistribution, Intestine [5, 6]: 8.78 ± 2.18 %IA/g
Biodistribution, Kidneys [5, 6]: 8.76 ± 1.57 %IA/g
Biodistribution, Liver [5, 6]: 14.3 ± 1.7 %IA/g
Biodistribution, Lung [5, 6]: 5.62 ± 1.61 %IA/g
Biodistribution, Muscles [5, 6]: 0.63 ± 0.10 %IA/g
Biodistribution, Pancreas [5, 6]: 1.89 ± 0.34 %IA/g
Biodistribution, Salivary glands [5, 6]: 3.25 ± 0.94 %IA/g
Biodistribution, Spleen [5, 6]: 2.46 ± 0.47 %IA/g
Biodistribution, Stomach [5, 6]: 7.52 ± 1.58 %IA/g
Biodistribution, Tumor [5, 6]: 3.31 ± 0.26 %IA/g
Biodistribution, Adrenals ([5]; 4 h after injection): 6.46 ± 2.38 %IA/g
Biodistribution, Blood ([5]; 4 h after injection): 1.12 ± 0.24 %IA/g
Biodistribution, Femur ([5]; 4 h after injection): 1.69 ± 0.25 %IA/g
Biodistribution, Heart ([5]; 4 h after injection): 2.08 ± 0.33 %IA/g
Biodistribution, Intestine ([5]; 4 h after injection): 7.74 ± 1.76 %IA/g
Biodistribution, Kidneys ([5]; 4 h after injection): 22.1 ± 2.2 %IA/g
Biodistribution, Liver ([5]; 4 h after injection): 13.9 ± 2.2 %IA/g
Biodistribution, Lung ([5]; 4 h after injection): 4.67 ± 0.76 %IA/g
Biodistribution, Muscles ([5]; 4 h after injection): 0.48 ± 0.08 %IA/g
Biodistribution, Pancreas ([5]; 4 h after injection): 1.71 ± 0.23 %IA/g
Biodistribution, Salivary glands ([5]; 4 h after injection): 2.31 ± 0.19 %IA/g
Biodistribution, Spleen ([5]; 4 h after injection): 2.95 ± 0.73 %IA/g
Biodistribution, Stomach ([5]; 4 h after injection): 7.10 ± 0.97 %IA/g
Biodistribution, Tumor (tumor uptake) ([5]; 4 h after injection): 4.88 ± 0.63 %IA/g
Tumor-to-Adrenals ratio ([5]; 4 h after injection): 0.81 ± 0.22
Tumor-to-Blood ratio ([5]; 4 h after injection): 4.56 ± 1.49
Tumor-to-Intestine ratio ([5]; 4 h after injection): 0.66 ± 0.23
Tumor-to-Kidneys ratio ([5]; 4 h after injection): 0.22 ± 0.04
Tumor-to-Liver ratio ([5]; 4 h after injection): 0.35 ± 0.05
Tumor-to-Muscles ratio ([5]; 4 h after injection): 10.5 ± 2.8
Tumor-to-Salivary glands ratio ([5]; 4 h after injection): 2.13 ± 0.43
Tumor-to-Spleen ratio ([5]; 4 h after injection): 1.73 ± 0.46
Blood values and background activity, fold higher than [^61Cu]Cu-NODAGA-PSMA-I&T ([5]; LNCaP xenografts): approximately 10 fold
